Measurements: US10174053B2, “2 substituted cephem compounds” (Glaxo Group Limited, priority 2012, dated 2019)
Converted amounts (≈) assume the structure as drawn. Like-named read-outs stand apart in the source and are kept apart here.

Assays:
Experiment in all cases: In vitro antimicrobial activity, MIC by broth microdilution (CLSI)
Type in all cases: cell-based
E. Coli JMI1890 = conditions: for MIC: Escherichia coli, read-out: Minimum Inhibitory Concentration (MIC) E. Coli JMI:1890
Method: (§1) Compound (I) of the invention was evaluated for in vitro antimicrobial activity thereof.
(§2) Measurement of Minimum Inhibitory Concentration (MIC: μg/mL) was conducted according to CLSI (Clinical and Laboratory Standards Institute) method, and the amount of bacteria for inoculation was 5×10^5 cfu/mL, and cation-adjusted Iso-Sensitest broth containing human Apo-transferrin was used as a test medium, and the experiment was conducted using broth microdilution method. The bacteria used are listed below.

K. pneumoniae SR01358 = conditions: for MIC: Klebsiella pneumoniae
Method: as §1, §2

A. baumannii JMI7 = conditions: for MIC: Acinetobacter baumannii
Method: as §1, §2

A. baumannii JMI2346 = conditions: for MIC: Acinetobacter baumannii
Method: as §1, §2

[1] = PER-1, TEM-1, ESBL producing strain, 5×10^5 cfu/mL, cation-adjusted Iso-Sensitest broth containing human Apo-transferrin
[2] = SR01358, KPC-2, ESBL and KPC-type carbapenemase producing strain, 5×10^5 cfu/mL, cation-adjusted Iso-Sensitest broth containing human Apo-transferrin, read-out: Minimum Inhibitory Concentration (MIC) K. pneumoniae SR01358
[3] = JMI7, PER-1, OXA-23, 51, ESBL and OXA-type carbapenemase producing strain, 5×10^5 cfu/mL, cation-adjusted Iso-Sensitest broth containing human Apo-transferrin, read-out: Minimum Inhibitory Concentration (MIC) A. baumannii JMI:7
[4] = JMI2346, OXA-51, TEM, ESBL and OXA-type carbapenemase producing strain, 5×10^5 cfu/mL, cation-adjusted Iso-Sensitest broth containing human Apo-transferrin, read-out: Minimum Inhibitory Concentration (MIC) A. baumannii JMI:2346

MIC (E. Coli JMI1890; [1]) [µg/mL]	MIC (K. pneumoniae SR01358; [2]) [µg/mL]	MIC (A. baumannii JMI7; [3]) [µg/mL]	MIC (A. baumannii JMI2346; [4]) [µg/mL]	SMILES	also measured
≤ 0.031	0.063	0.25	0.5	C[C@@H]1S[C@@H]2[C@H](NC(=O)/C(=N\OC(C)(C)C(=O)[O-])c3csc(N)n3)C(=O)N2C(C(=O)[O-])=C1C[N+]12CCCC(CNC(=O)c3ccc(O)c(O)c3Cl)(CCC1)C2.[Na+] [Compound I-118]	
				CO/N=C(\C(=O)NCC12CC[N+](CC3=C(COO)N4C(=O)[C@@H](NC(=O)/C(=N\OC(C)(C)C(=O)[O-])c5csc(N)n5)[C@H]4S[C@H]3C)(CC1)CC2)c1cc(O)c(O)c(Cl)c1 [Compound I-131]	Minimum Inhibitory Concentration (MIC) E. Coli JMI:1890 (E. Coli JMI1890; [1]): 0.125 µg/mL; Minimum Inhibitory Concentration (MIC) K. pneumoniae SR01358 (K. pneumoniae SR01358; KPC-2, ESBL and KPC-type carbapenemase producing strain, 5×10^5 cfu/mL, cation-adjusted Iso-Sensitest broth containing human Apo-transferrin): 0.063 µg/mL; Minimum Inhibitory Concentration (MIC) A. baumannii JMI:7 (A. baumannii JMI7; PER-1, OXA-23, 51, ESBL and OXA-type carbapenemase producing strain, 5×10^5 cfu/mL, cation-adjusted Iso-Sensitest broth containing human Apo-transferrin): 2 µg/mL; Minimum Inhibitory Concentration (MIC) A. baumannii JMI:2346 (A. baumannii JMI2346; OXA-51, TEM, ESBL and OXA-type carbapenemase producing strain, 5×10^5 cfu/mL, cation-adjusted Iso-Sensitest broth containing human Apo-transferrin): 2 µg/mL
1	≤ 0.031	1	8	C[C@@H]1S[C@@H]2[C@H](NC(=O)/C(=N\OC(C)(C)C(=O)[O-])c3csc(N)n3)C(=O)N2C(C(=O)[O-])=C1C[N@+]12CCC[C@H]1CN(C(=O)C(=O)c1cc(O)c(O)c(Cl)c1)CC2.[Na+] [Compound I-10]	
0.063 (≈ 0.0716 µM)	≤ 0.031	0.25 (≈ 0.284 µM)	0.5 (≈ 0.569 µM)	C[C@@H]1S[C@@H]2[C@H](NC(=O)/C(=N\OC(C)(C)C(=O)[O-])c3csc(N)n3)C(=O)N2C(C(=O)O)=C1C[N+]12CCC(CNC(=O)/C(=N\OCC(=O)O)c3ccc(O)c(O)c3Cl)(CC1)C2 [Compound I-101]	
0.125 (≈ 0.152 µM)	≤ 0.031	0.5 (≈ 0.609 µM)	2 (≈ 2.44 µM)	C[C@@H]1S[C@@H]2[C@H](NC(=O)/C(=N\OC(C)(C)C(=O)[O-])c3csc(N)n3)C(=O)N2C(C(=O)O)=C1C[N+]12CCC(CNC(=O)/C(=N\O)c3ccc(O)c(O)c3Cl)(CC1)C2 [Compound I-102]	
0.25 (≈ 0.326 µM)	≤ 0.031	1 (≈ 1.31 µM)	4 (≈ 5.22 µM)	C[C@@H]1S[C@@H]2[C@H](NC(=O)/C(=N\OC(C)(C)C(=O)[O-])c3csc(N)n3)C(=O)N2C(C(=O)O)=C1C[N+]1(CCNC(=O)c2ccc(O)c(O)c2Cl)CCCC1 [Compound I-52]	
0.063	≤ 0.031	0.5	2	C[C@@H]1S[C@@H]2[C@H](NC(=O)/C(=N\OC(C)(C)C(=O)[O-])c3csc(N)n3)C(=O)N2C(C(=O)[O-])=C1C[N+]12CCC(CC1)N(C(=O)c1ccc(O)c(O)c1Cl)CC2.[Na+] [Compound I-62]	
2	0.063	2	16	C[C@@H]1S[C@@H]2[C@H](NC(=O)/C(=N\OC(C)(C)C(=O)[O-])c3csc(N)n3)C(=O)N2C(C(=O)[O-])=C1C[N+]1(CCNC(=O)c2cc(O)c(O)c(Cl)c2)CCCC1.[Na+] [Compound I-61]	
0.5 (≈ 0.641 µM)	0.063 (≈ 0.0807 µM)	1 (≈ 1.28 µM)	4 (≈ 5.13 µM)	C[C@@H]1S[C@@H]2[C@H](NC(=O)/C(=N\OC(C)(C)C(=O)[O-])c3csc(N)n3)C(=O)N2C(C(=O)O)=C1C[N+]1(CCNC(=O)c2ccc(O)c(O)c2Cl)CCCCC1 [Compound I-43]	
≤ 0.031	≤ 0.031	0.5	1	C[C@@H]1S[C@@H]2[C@H](NC(=O)/C(=N\OC(C)(C)C(=O)[O-])c3csc(N)n3)C(=O)N2C(C(=O)[O-])=C1C[N+]12CCC(Cn3[nH]c(=O)c4cc(O)c(O)cc4c3=O)(CC1)C2.[Na+] [Compound I-180]	
0.25	≤ 0.031	1	2	C[C@@H]1S[C@@H]2[C@H](NC(=O)/C(=N\OC(C)(C)C(=O)[O-])c3csc(N)n3)C(=O)N2C(C(=O)[O-])=C1C[N+]12CCC(CC1)N(C(=O)c1cc(O)c(O)c(F)c1)CC2.[Na+] [Compound I-67]	
0.5	0.25	2	8	C[C@@H]1S[C@@H]2[C@H](NC(=O)/C(=N\OC(C)(C)C(=O)[O-])c3csc(N)n3)C(=O)N2C(C(=O)[O-])=C1C[N+]12CCC[C@H]1CN(C(=O)C(=O)c1cc(O)c(O)c(F)c1)CC2.[Na+] (stereo partly drawn) [Compound I-85]	
2	≤ 0.031	4	16	C[C@@H]1S[C@@H]2[C@H](NC(=O)/C(=N\O[C@@H](CC(=O)[O-])C(=O)[O-])c3csc(N)n3)C(=O)N2C(C(=O)[O-])=C1C[N+]12CCC(CC1)N(C(=O)C(=O)c1cc(O)c(O)c(Cl)c1)CC2.[Na+].[Na+] [Compound I-17]	
0.063	≤ 0.031	0.25	0.5	C[C@@H]1S[C@@H]2[C@H](NC(=O)/C(=N\OC(C)(C)C(=O)[O-])c3csc(N)n3)C(=O)N2C(C(=O)[O-])=C1C[N+]12CCC(CC1)N(C(=O)c1c[nH]c3cc(O)c(O)c(Cl)c3c1=O)CC2.[Na+] [Compound I-177, (4S,6R,7R)-7-((Z)-2-(2-aminothiazol-4-yl)-2-(((2-carboxypropan-2-yl)oxy)imino)acetamido)-3-((4-(5-chloro-6,7-dihydroxy-4-oxo-1,4-dihydroquinoline-3-carbonyl)-1,4-diazabicyclo[3.2.2]nonan-1-ium-1-yl)methyl)-4-methyl-8-oxo-5-thia-1-azabicyclo [4.2.0]oct-2-ene-2-carboxylate, Sodium salt]	
0.5 (≈ 0.647 µM)	≤ 0.031	0.5 (≈ 0.647 µM)	4 (≈ 5.18 µM)	C[C@@H]1S[C@@H]2[C@H](NC(=O)/C(=N\OC(C)(C)C(=O)[O-])c3csc(N)n3)C(=O)N2C(C(=O)O)=C1C[N+]1(CCNN2C(=O)c3cc(O)c(O)cc3C2=O)CCCC1 [Compound I-26]	
				C[C@@H]1S[C@@H]2[C@H](NC(=O)/C(=N\OC(C)(C)C(=O)[O-])c3csc(N)n3)C(=O)N2C(C(=O)O)=C1C[N@+]1(C)[C@@H]2CC[C@H]1C[C@@H](N1C(=O)c3ccc(O)c(O)c3C1=O)C2 [Compound I-38]	MIC (E. Coli JMI1890): 0.25 µg/mL (≈ 0.319 µM); MIC (K. pneumoniae SR01358; SR01358, read-out: Minimum Inhibitory Concentration (MIC) K. pneumoniae SR01358): 0.063 µg/mL (≈ 0.0804 µM); MIC (A. baumannii JMI7; JMI7, read-out: Minimum Inhibitory Concentration (MIC) A. baumannii JMI:7): 0.25 µg/mL (≈ 0.319 µM); MIC (A. baumannii JMI2346; JMI2346, read-out: Minimum Inhibitory Concentration (MIC) A. baumannii JMI:2346): 0.5 µg/mL (≈ 0.638 µM)

SMILES	MIC (E. Coli JMI1890; [1]) [µg/mL]	MIC (K. pneumoniae SR01358; [2]) [µg/mL]	MIC (A. baumannii JMI7; [3]) [µg/mL]	MIC (A. baumannii JMI2346; [4]) [µg/mL]	also measured
C[C@@H]1S[C@@H]2[C@H](NC(=O)/C(=N\OC(C)(C)C(=O)[O-])c3csc(N)n3)C(=O)N2C(C(=O)[O-])=C1C[N+]1(C)[C@@H]2CC[C@H]1C[C@@H](NC(=O)c1cc(O)c(O)c(F)c1)C2.[Na+] (stereo partly drawn) [Compound I-71]	0.25	≤ 0.031	0.5	2	
CCn1cc(C(=O)N[C@H]2C[C@H]3CC[C@@H](C2)[N@+]3(C)CC2=C(C(=O)O)N3C(=O)[C@@H](NC(=O)/C(=N\OC(C)(C)C(=O)[O-])c4csc(N)n4)[C@H]3S[C@H]2C)c(=O)c2c(Cl)c(O)c(O)cc21 [Compound I-121]	0.063 (≈ 0.071 µM)	≤ 0.031	0.5 (≈ 0.563 µM)	2 (≈ 2.25 µM)	
C[C@@H]1S[C@@H]2[C@H](NC(=O)/C(=N\OC(C)(C)C(=O)[O-])c3csc(N)n3)C(=O)N2C(C(=O)O)=C1C[N+]12CCC(CNC(=O)/C(=N\O)c3cc(O)c(O)c(F)c3)(CC1)CC2 [Compound I-136]	0.5 (≈ 0.611 µM)	≤ 0.031	1 (≈ 1.22 µM)	2 (≈ 2.44 µM)	
C[C@@H]1S[C@@H]2[C@H](NC(=O)/C(=N\OC(C)(C)C(=O)[O-])c3csc(N)n3)C(=O)N2C(C(=O)O)=C1C[N+]12CCC(CNC(=O)c3ccc(O)c(O)c3Cl)(CC1)CC2 [Compound I-40]	0.5 (≈ 0.631 µM)	0.063 (≈ 0.0795 µM)	1 (≈ 1.26 µM)	4 (≈ 5.05 µM)	
C[C@@H]1S[C@@H]2[C@H](NC(=O)/C(=N\OC(C)(C)C(=O)[O-])c3csc(N)n3)C(=O)N2C(C(=O)[O-])=C1C[N@+]1(C)[C@@H]2CC[C@H]1C[C@@H](NC(=O)C(=O)c1cc(O)c(O)c(Cl)c1)C2.[Na+] [Compound I-12]	0.25	≤ 0.031	1	4	
C[C@@H]1S[C@@H]2[C@H](NC(=O)/C(=N\OC(C)(C)C(=O)[O-])c3csc(N)n3)C(=O)N2C(C(=O)O)=C1C[N+]12CCC(CNN3C(=O)c4cc(O)c(O)cc4C3=O)(CC1)CC2 [Compound I-123]	0.125 (≈ 0.156 µM)	≤ 0.031	0.5 (≈ 0.626 µM)	4 (≈ 5.01 µM)	
C[C@@H]1S[C@@H]2[C@H](NC(=O)/C(=N\OC(C)(C)C(=O)[O-])c3csc(N)n3)C(=O)N2C(C(=O)O)=C1C[N+]12CCC(CN3C(=O)c4ccc(O)c(O)c4C3=O)(CC1)CC2 [Compound I-39]	0.25 (≈ 0.319 µM)	0.063 (≈ 0.0804 µM)	0.125 (≈ 0.159 µM)	1 (≈ 1.28 µM)	
C[C@@H]1S[C@@H]2[C@H](NC(=O)/C(=N\OC(C)(C)C(=O)[O-])c3csc(N)n3)C(=O)N2C(C(=O)[O-])=C1C[N+]1(C)[C@@H]2CC[C@H]1C[C@@H](NC(=O)c1cc(O)c(O)c(Cl)c1)C2.[Na+] (stereo partly drawn) [Compound I-66]	0.063	≤ 0.031	0.25	1	
